In patent publication US11970448B2, “Monomers capable of dimerizing in an aqueous solution, and methods of using same” (CORNELL UNIVERSITY, priority 2011, dated 2024):
Structures can show the parent of a compound that is named as a salt. Where two headings read alike, the source gives them in different places.

Biological target: T1, recominbant human tryptase, beta, from lung (Homo sapiens, UniProt P20231)
T1 construct: purchased Promega or Enzo Life Sciences G5631 or BML-SE418
Assay: Inhibition of tryptase activity by monomers and multimers (Boc-Gln-Ala-Arg-AMC fluorescence)
Assay type: biochemical
Conditions: monomers against tryptase
Procedure, shortened: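 Recombinant human lung β-tryptase (1 nM final; stock with heparin sulfate and 1 M NaCl) preincubated with test substance, then 200 μM Boc-Gln-Ala-Arg-AMC added in 50 mM HEPES, 150 mM NaCl, 100 μM EDTA, 0.02% Tween-20, pH 7.4. AMC fluorescence (ex 367/em 468 nm) read every 30 s for 15–30 min; IC50 from Vmax concentration-response curves.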

[1] = Table 5, read-out: Monomer IC50 range
[2] = read-out: IC50 range group of additional monomers (boronic acid, benzooxaborole, ligands)
[3] = entry marked (1:10), read-out: IC50 range group of additional monomers marked (1:10)

T1 sequence (P20231 31-275): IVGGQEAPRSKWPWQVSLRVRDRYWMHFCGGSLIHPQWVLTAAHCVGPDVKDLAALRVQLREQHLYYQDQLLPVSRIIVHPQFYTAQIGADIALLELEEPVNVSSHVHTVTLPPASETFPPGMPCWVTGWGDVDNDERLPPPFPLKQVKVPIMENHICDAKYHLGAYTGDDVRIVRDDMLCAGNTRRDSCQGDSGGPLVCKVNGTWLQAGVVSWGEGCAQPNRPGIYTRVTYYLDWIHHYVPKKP

Structure (SMILES)	IC50 [1] [nM]	IC50 [2] [nM]	IC50 [3] [nM]
NCc1cccc(C2CCN(C(=O)/C=C/c3ccc(C(N)=O)c(O)c3)CC2)c1 [T76, (E)-4-(3-(4-(3-(aminomethyl)phenyl)piperidin-1-yl)-3-oxoprop-1-enyl)-2-hydroxybenzamide]	0.1 to 1000	0.1 to 1000	
NCc1cccc(C2CCN(C(=O)c3ccc(CO)c(O)c3)CC2)c1 [T74, (4-(3-(aminomethyl)phenyl)piperidin-1-yl)(3-hydroxy-4-(hydroxymethyl)phenyl)methanone]	0.1 to 1000		0.1 to 1000
NCc1cccc(C2CCN(C(=O)c3cccc(NC(=O)c4cccc(O)c4O)c3)CC2)c1 [T70, N-(3-(4-(3-(aminomethyl)phenyl)piperidine-1-carbonyl)phenyl)-2,3-dihydroxybenzamide]	0.1 to 1000	0.1 to 1000	
NCc1cccc(C2CCN(C(=O)C3CC4CCC3C(O)C4O)CC2)c1 (racemic) [T142ENDOANTI, (±) endo (4-(3-(aminomethyl)phenyl)piperidin-1-yl)(-5,6-anti-dihydroxybicyclo[2.2.2]octan-2-yl)methanone]		0.1 to 1000	
CC(O)(Cn1ccc2cc(C(=O)N3CCC(c4cccc(CN)c4)CC3)ccc21)C(=O)O (stereo not drawn) [T81, 3-(5-(4-(3-(aminomethyl)phenyl)piperidine-1-carbonyl)-1H-indol-1-yl)-2-hydroxy-2-methylpropanoic acid]	0.1 to 1000		0.1 to 1000
CONC(=O)c1ccc(C(=O)N2CCC(c3cccc(CN)c3)CC2)cc1O [T75A, 4-(4-(3-(aminomethyl)phenyl)piperidine-1-carbonyl)-2-hydroxy-N-methoxybenzamide]	0.1 to 1000	0.1 to 1000	
NCc1ccc2c(c1)C1(CCN(C(=O)c3cccc(-c4cccc5c4COB5O)c3)CC1)CO2 [T112SPIRO]		1000 to 10000	
NCc1cccc(C2CCN(C(=O)c3ccc(C(=O)NOc4ccccc4)c(O)c3)CC2)c1 [T75AP]			0.1 to 1000
NCc1ccc(F)c(C2CCN(C(=O)c3cccc4ccc(B(O)O)cc34)CC2)c1 [T11F, 8-(4-(5-(aminomethyl)-2-fluorophenyl)piperidine-1-carbonyl)naphthalen-2-ylboronic acid]	1000 to 10000	1000 to 10000	
NCc1cccc(C2CCN(C(=O)/C=C/c3ccc(CO)c(O)c3)CC2)c1 [T41, (E)-1-(4-(3-(aminomethyl)phenyl)piperidin-1-yl)-3-(3-hydroxy-4-(hydroxymethyl)phenyl)prop-2-en-1-one]	0.1 to 1000	0.1 to 1000	
CN(Cc1ccccc1B(O)O)c1cccc(C(=O)N2CCC(c3cccc(CN)c3)CC2)c1 [T146]		10000 to 65000	
NCc1cccc(C2CCN(C(=O)c3cc(O)c(O)cc3O)CC2)c1 [T77, (4-(3-(aminomethyl)phenyl)piperidin-1-yl)(2,4,5-trihydroxyphenyl)methanone]	10000 to 65000	10000 to 65000	
Cc1cc(C(=O)N2CCC3(CC2)COc2ccc(CN)cc23)cc(CO)c1O [T113SPIRO]		0.1 to 1000	
C[C@@]1(O)CN(c2cccc(C(=O)N3CCC(c4cccc(CN)c4)CC3)c2)C(=O)[C@@H]1O [CMI9317, 1-{^3-[^4-(3-aminomethyl-phenyl)-piperidine-1-carbonyl]-phenyl}-3,4-dihydroxy-4-methyl-pyrrolidin-2-one hydrochloride]			0.1 to 1000
NCc1cccc(C2CCN(C(=O)c3ccc(O)c(C(N)=O)c3)CC2)c1 [T66, 5-(4-(3-(aminomethyl)phenyl)piperidine-1-carbonyl)-2-hydroxybenzamide]	0.1 to 1000	0.1 to 1000	
NCc1cccc(C2CCN(C(=O)c3cccc(/C=C/B(O)O)c3)CC2)c1 [T14, (E)-3-(4-(3-(aminomethyl)phenyl)piperidine-1-carbonyl)styrylboronic acid]	0.1 to 1000		
NCc1ccc2c(c1)C1(CCN(C(=O)c3cccc(-c4cccc(B(O)O)c4)c3)CC1)CO2 [T35SPIRO, 3′-(5-(aminomethyl)-2H-spiro[benzofuran-3,4′-piperidine]-1′-ylcarbonyl)biphenyl-3-ylboronic acid]	1000 to 10000	1000 to 10000	
NCc1cccc(C2CCN(C(=O)Cc3cc(=O)oc4c(O)c(O)ccc34)CC2)c1 [T98]		10000 to 65000	
NCc1cccc(C2CCN(C(=O)/C=C/c3ccc(C4CC4)c(O)c3)CC2)c1 [T41CYCLO, (E)-1-(4-(3-(aminomethyl)phenyl)piperidin-1-yl)-3-(4-cyclopropyl-3-hydroxyphenyl)prop-2-en-1-one]	0.1 to 1000		
NCc1cccc(C2CCN(C(=O)c3cccc(NC(=O)C(=O)C4(O)CCC4)c3)CC2)c1 [T21, N-(3-(4-(3-(aminomethyl)phenyl)piperidine-1-carbonyl)phenyl)-2-(1-hydroxycyclobutyl)-2-oxoacetamide]	0.1 to 1000		
NCc1ccc2c(c1)C1(CCN(C(=O)c3ccc(O)c(O)c3)CC1)CO2 [T2SPIRO, (5-(aminomethyl)-2H-spiro[benzofuran-3,4′-piperidine]-1′-yl)(3,4-dihydroxyphenyl)methanone]	0.1 to 1000	0.1 to 1000	

Structure (SMILES)	IC50 [1] [nM]	IC50 [2] [nM]	IC50 [3] [nM]
CONC(=O)c1ccc(/C=C/C(=O)N2CCC(c3cccc(CN)c3)CC2)cc1O [T76A, (E)-4-(3-(4-(3-(aminomethyl)phenyl)piperidin-1-yl)-3-oxoprop-1-enyl)-2-hydroxy-N-methoxybenzamide]	0.1 to 1000	0.1 to 1000	
NCc1cccc(C2CCN(C(=O)c3cc4ccc(B(O)O)cc4[nH]3)CC2)c1 [T59, 2-(4-(3-(aminomethyl)phenyl)piperidine-1-carbonyl)-1H-indol-6-ylboronic acid]	1000 to 10000	1000 to 10000	
NCc1cccc(C2CCN(C(=O)c3cccc(C(=O)N4C[C@@H](O)[C@H](O)C4)c3)CC2)c1 [T26diol cis, (4-(3-(aminomethyl)phenyl)piperidin-1-yl)(3-((3R,4R)-3,4-dihydroxypyrrolidine-1-carbonyl)phenyl)methanone]	1000 to 10000	1000 to 10000	
CN(Cc1ccccc1B(O)O)c1ccc2c(C(=O)N3CCC(c4cccc(CN)c4)CC3)cccc2c1 [T154]		1000 to 10000	
NCc1cccc(C2CCN(C(=O)/C=C/c3ccc(O)c(C(N)=O)c3)CC2)c1 [T86, (E)-5-(3-(4-(3-(aminomethyl)phenyl)piperidin-1-yl)-3-oxoprop-1-enyl)-2-hydroxybenzamide]	1000 to 10000	1000 to 10000	
NCc1ccc2c(c1)C1(CCN(C(=O)c3cccc(-c4cc(F)cc(B(O)O)c4)c3)CC1)CO2 [T132SPIRO]		1000 to 10000	
CONC(=O)c1cc(C)cc(C(=O)N2CCC(c3cccc(CN)c3)CC2)c1O [T136A]		0.1 to 1000	
CC(O)(COc1cccc(C(=O)N2CCC(c3cccc(CN)c3)CC2)c1)C(=O)O (stereo not drawn) [T72, 3-(3-(4-(3-(aminomethyl)phenyl)piperidine-1-carbonyl)phenoxy)-2-hydroxy-2-methylpropanoic acid]	0.1 to 1000	0.1 to 1000	
NCc1cccc(C2CCN(C(=O)/C=C/c3ccc(B(O)O)cc3)CC2)c1 [T33, (E)-4-(3-(4-(3-(aminomethyl)phenyl)piperidin-1-yl)-3-oxoprop-1-enyl)phenylboronic acid]	1000 to 10000	1000 to 10000	
CONC(=O)c1ccc(C(=O)N2CCC3(CC2)COc2ccc(CN)cc23)cc1O [T75ASPIRO]			0.1 to 1000
CN(Cc1ccccc1B(O)O)c1ccc(C(=O)N2CCC(c3cccc(CN)c3)CC2)cc1 [T147]		1000 to 10000	
NCc1ccc(CNC(=O)N2CCN(C(=O)CNC(=O)C(=O)CO)CC2)cc1 [CF20, N-(4-(aminomethyl)benzyl)-4-(2-(3-hydroxy-2-oxopropanamido)acetyl)piperazine-1-carboxamide]	0.1 to 1000		
NCc1cccc(C2CCN(C(=O)c3ccc4ccn(CC(O)(C(=O)O)c5ccccc5)c4c3)CC2)c1 (stereo not drawn) [T84, 3-(6-(4-(3-(aminomethyl)phenyl)piperidine-1-carbonyl)-1H-indol-1-yl)-2-hydroxy-2-phenylpropanoic acid]	0.1 to 1000		0.1 to 1000
NCc1cccc(C2CCN(C(=O)c3cc4c(B(O)O)cccc4s3)CC2)c1 [T56, 2-(4-(3-(aminomethyl)phenyl)piperidine-1-carbonyl)benzo[b]thiophen-4-ylboronic acid]	0.1 to 1000	0.1 to 1000	
NCc1ccc(C(=O)NCc2ccc(OCC(=O)N3C[C@H](O)[C@@H](O)C3)cc2)cc1 [CF1, 4-(aminomethyl)-N-(4-(2-((3S,4S)-3,4-dihydroxypyrrolidin-1-yl)-2-oxoethoxy)benzyl)benzamide hydrochloride]	10000 to 65000		
Cc1c(CC(=O)N2CCC(c3cccc(CN)c3)CC2)c(=O)oc2c(O)c(O)ccc12 [T101]	0.1 to 1000	0.1 to 1000	
NCc1ccc(C(=O)NCc2ccc(OCC(=O)N3CC(=O)[C@H](O)C3)cc2)cc1 [CF7, (R)-4-(aminomethyl)-N-(4-(2-(3-hydroxy-4-oxopyrrolidin-1-yl)-2-oxoethoxy)benzyl)benzamide hydrochloride]	1000 to 10000		
NCc1cccc(C2CCN(C(=O)c3ccc(Cl)c(Cl)c3)CC2)c1 [CF5, (4-(3-(aminomethyl)phenyl)piperidin-1-yl)(3,4-dichlorophenyl)methanone]	0.1 to 1000		
NCc1cccc(C2CCN(C(=O)c3cccc(NC(=O)C4CC5CCC4C(O)C5O)c3)CC2)c1 (racemic) [T141ENDOANTI, (±) endo-N-(3-(4-(3-(aminomethyl)phenyl)piperidine-1-carbonyl)phenyl)-5,6-anti-dihydroxybicyclo[2.2.2]octane-2-carboxemide.]		0.1 to 1000	
NCc1cccc(C2CCN(C(=O)Cc3cc(B(O)O)ccc3F)CC2)c1 [T57, 3-(2-(4-(3-(aminomethyl)phenyl)piperidin-1-yl)-2-oxoethyl)-4-fluorophenylboronic acid]	1000 to 10000	1000 to 10000	
NCc1ccc2c(c1)C1(CCN(C(=O)Cc3ccc(B(O)O)c(F)c3)CC1)CO2 [T54BASPIRO]		1000 to 10000	
